The values that follow come from US20240254115A1 (ACONDICIONAMIENTO TARRASENSE, priority 2021, published 2024).

pKi: −log10 of the molar value. A value given as a limit tells only on which side of the number the result lay.

The target in assay [1] is T1, human σ1 receptor (Homo sapiens, UniProt Q99720).
T1 construct: expressed in transfected cells; host or cells: HEK-293
The experiment in a line: Human σ1 receptor radioligand assay. To be noted: transfected HEK-293 membranes, 5 nM [3H](+)-pentazocine, 37° C. 120 minutes; + may also stand for 1-50% inhibition at 1 or 10 μM; read-out: Binding σ-1 Ki. The method, then: Human σ1 Receptor Radioligand Assay
Transfected HEK-293 membranes (7 μg) were incubated with 5 nM of [^3H](+)-pentazocine in assay buffer containing Tris-HCl 50 mM at pH 8. NBS (non-specific binding) was measured by adding 10 μM haloperidol. The binding of the test compound was measured at either one concentration (% inhibition at 1 or 10 μM) or five different concentrations to determine affinity values (Ki). Plates were incubated at 37° C. for 120 minutes. After the incubation period, the reaction mix was then transferred to MultiScreen HTS, FC plates (Millipore), filtered and plates were washed 3 times with ice-cold 10 mM Tris-HCL (pH7.4). Filters were dried and counted at approximately 40% efficiency in a MicroBeta scintillation counter (Perkin-Elmer) using EcoScint liquid scintillation cocktail.

Assay [2] addresses T2, human σ2/TMEM97 receptor (Homo sapiens, UniProt Q5BJF2).
T2 construct: expressed in transfected cells; host or cells: HEK-293
The experiment in a line: Binding assay to human σ2/TMEM97 receptor. To be noted: transfected HEK-293 membranes, 10 nM [3H]-DTG, 25° C. 120 minutes; + may also stand for 1-50% inhibition at 1 or 10 μM; read-out: Binding σ-2 Ki. As to the method:
Binding Assay to Human σ2/TMEM97 Receptor
Transfected HEK-293 membranes (15 μg) were incubated with 10 nM [^3H]-1,3-Di-o-tolylguanidine (DTG) in assay buffer containing Tris-HCl 50 mM at pH 8.0. NSB (non-specific binding) was measured by adding 10 μM haloperidol. The binding of the test compound was measured at either one concentration (% inhibition at 1 or 10 μM) or five different concentrations to determine affinity values (Ki). Plates were incubated at 25° C. for 120 minutes. After the incubation period, the reaction mix was transferred to MultiScreen HTS, FC plates (Millipore), filtered and washed 3 times with ice-cold 10 mM Tris-HCL (pH 8.0). Filters were dried and counted at approximately 40% efficiency in a MicroBeta scintillation counter (Perkin-Elmer) using EcoScint liquid scintillation cocktail.

T1 sequence (Q99720 whole entry): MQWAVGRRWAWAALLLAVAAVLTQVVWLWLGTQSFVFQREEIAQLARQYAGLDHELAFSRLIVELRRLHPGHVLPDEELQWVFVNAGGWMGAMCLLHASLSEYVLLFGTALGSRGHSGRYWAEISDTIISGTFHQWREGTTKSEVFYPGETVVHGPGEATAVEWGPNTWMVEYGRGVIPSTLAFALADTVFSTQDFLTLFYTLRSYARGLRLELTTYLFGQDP
T2 sequence (Q5BJF2 whole entry): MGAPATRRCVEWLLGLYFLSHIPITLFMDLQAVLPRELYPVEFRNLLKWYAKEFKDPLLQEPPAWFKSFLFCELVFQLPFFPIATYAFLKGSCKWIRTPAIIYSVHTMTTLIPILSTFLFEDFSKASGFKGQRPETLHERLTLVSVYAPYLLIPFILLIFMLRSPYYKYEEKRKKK

As a reminder, the pKi is the negative decadic logarithm of the Ki, by convention in mol/L. Take `O=S(=O)(N[C@H]1CC[C@H](NCc2ccncc2)CC1)c1ccc(N2CCOCC2)nc1` [Example 55, 6-Morpholino-N-((1r,4r)-4-((pyridin-4-ylmethyl)amino)cyclohexyl)pyridine-3-sulfonamide]: the pKi in assay [1] and in assay [2] was less than 6.00 throughout.

With `CN(Cc1ccccc1F)[C@H]1CC[C@H](NS(=O)(=O)c2ccc(N3CCOCC3)nc2)CC1` [Example 56, N-((1r,4r)-4-((2-Fluorobenzyl)(methyl)amino)cyclohexyl)-6-morpholinopyridine-3-sulfonamide], the pKi in assay [1] is less than 6.00; in assay [2] it was more than 7.00.

Regarding `CN(Cc1cccc(F)c1)[C@H]1CC[C@H](NS(=O)(=O)c2ccc(N3CCOCC3)nc2)CC1` [Example 57, N-((1r,4r)-4-((3-Fluorobenzyl) (methyl)amino)cyclo-hexyl)-6-morpholinopyridine-3-sulfonamide], the pKi in assay [1] was less than 6.00; in assay [2], more than 7.00.

On to `CN(Cc1ccc(F)c(C#N)c1)[C@H]1CC[C@H](NS(=O)(=O)c2ccc(N3CCOCC3)nc2)CC1` [Example 58, N-((1r,4r)-4-((3-Cyano-4-Fluorobenzyl)(methyl)amino)cyclo-hexyl)-6-morpholinopyridine-3-sulfonamide], for which the figures for the pKi in assay [1] and in assay [2] were less than 6.00 and more than 7.00, respectively.

`CN(Cc1cccnc1)[C@H]1CC[C@H](NS(=O)(=O)c2ccc(N3CCOCC3)nc2)CC1` [Example 59, N-((1r,4r)-4-(Methyl(pyridin-3-ylmethyl)amino)cyclohexyl)-6-morpholinopyridine-3-sulfonamide]: the pKi in assay [1] and in assay [2] was less than 6.00 throughout.

Turning to `CN(Cc1ccncc1)[C@H]1CC[C@H](NS(=O)(=O)c2ccc(N3CCOCC3)nc2)CC1` [Example 60, N-((1r,4r)-4-(Methyl(pyridin-4-ylmethyl)amino)cyclohexyl)-6-morpholinopyridine-3-sulfonamide], the values for the pKi in assay [1] and in assay [2] were less than 6.00 and 6.30 to 7.00, respectively.

Take `O=S(=O)(c1ccc(N2CCOCC2)nc1)N1CCCC2(CCN(Cc3ccccc3)CC2)C1` [Example 61, 4-(5-((9-Benzyl-2,9-diazaspiro[5.5]undecan-2-yl)sulfonyl)pyridin-2-yl)morpholine]: the pKi was 6.30 to 7.00 in assay [1] and more than 7.00 in assay [2].

As for `N#Cc1ccc(CN2CCC3(CCCN(S(=O)(=O)c4ccc(N5CCOCC5)nc4)C3)CC2)cc1F` [Example 62, 2-Fluoro-4-((2-((6-morpholinopyridin-3-yl)sulfonyl)-2,9-diazaspiro[5.5]undecan-9-yl)methyl)benzonitrile], the pKi is 6.30 to 7.00 in assay [1] and more than 7.00 in assay [2].

`O=S(=O)(c1ccc(N2CCOCC2)nc1)N1CCCC2(CCN(Cc3ccncc3)CC2)C1` [Example 63, 4-(5-((9-(Pyridin-4-ylmethyl)-2,9-diazaspiro[5.5]undecan-2-yl)sulfonyl)pyridin-2-yl)morpholine]: the results for the pKi in assay [1] and in assay [2] were 6.30 to 7.00 and more than 7.00, respectively.

Consider `O=S(=O)(c1ccc(N2CCOCC2)nc1)N1CCC[C@H](CNCc2ccc(O)nc2)C1` [Example 64, (R)-5-((((1-((6-Morpholinopyridin-3-yl)sulfonyl)piperidin-3-yl)methyl)amino)methyl)pyridin-2-ol], for which the pKi is less than 6.00 in assay [1] and 6.30 to 7.00 in assay [2].

Regarding `O=S(=O)(c1ccc(N2CCOCC2)nc1)N1CCC[C@@H](CNCc2ccc(O)nc2)C1` [Example 65, (S)-5-((((1-((6-Morpholinopyridin-3-yl)sulfonyl)piperidin-3-yl)methyl)amino)methyl)pyridin-2-ol], the pKi in assay [1] was less than 6.00; in assay [2] it was 6.30 to 7.00.

As to `CC(C)(C)CCN1CCC2(CC1)CCN(S(=O)(=O)c1ccc(C(F)(F)F)nc1)CC2` [Example 66, 3-(3,3-Dimethylbutyl)-9-((6-(trifluoromethyl)pyridin-3-yl)sulfonyl)-3,9-diazaspiro[5.5]undecane], the pKi in assay [1] and in assay [2] was more than 7.00 each time.

As to `CC(C)(C)CCN1CCC2(CC1)CCN(S(=O)(=O)c1ccc(C(F)(F)F)nc1)C2` [Example 67, 8-(3,3-Dimethylbutyl)-2-((6-(trifluoromethyl)pyridin-3-yl)sulfonyl)-2,8-diazaspiro[4.5]decane], the pKi in assay [1] and in assay [2] was more than 7.00 throughout.

For the molecule `CC(C)(C)CCN1CCC2(CC1)CCN(S(=O)(=O)c1ccc(N3CCC4(CCOC4)CC3)nc1)CC2` [Example 68, 8-(5-((9-(3,3-Dimethylbutyl)-3,9-diazaspiro[5.5]undecan-3-yl)sulfonyl)pyridin-2-yl)-2-oxa-8-azaspiro[4.5]decane], the values for the pKi in assay [1] and in assay [2] were 6.30 to 7.00 and more than 7.00, respectively.

`CC(C)(C)CCN1CCC2(CC1)CCN(S(=O)(=O)c1ccc(N3CCS(=O)(=O)CC3)nc1)CC2` [Example 69, 4-(5-((9-(3,3-Dimethylbutyl)-3,9-diazaspiro[5.5]undecan-3-yl)sulfonyl)pyridin-2-yl)thiomorpholine 1,1-dioxide]: the pKi is 6.30 to 7.00 in assay [1] and more than 7.00 in assay [2].

On to `CC(C)(C)CCN1CCC2(CC1)CCN(S(=O)(=O)c1ccc(N3CCC(F)(F)CC3)nc1)CC2` [Example 70, 3-((6-(4,4-Difluoropiperidin-1-yl)pyridin-3-yl)sulfonyl)-9-(3,3-dimethylbutyl)-3,9-diazaspiro[5.5]undecane], for which the pKi in assay [1] and in assay [2] was more than 7.00 in each case.

As for `CC(C)(C)CCN1CCC2(CC1)CCN(S(=O)(=O)c1ccc(N3CCC4(CCCO4)CC3)nc1)CC2` [Example 71, 8-(5-((9-(3,3-Dimethylbutyl)-3,9-diazaspiro[5.5]undecan-3-yl)sulfonyl)pyridin-2-yl)-1-oxa-8-azaspiro[4.5]decane], the pKi in assay [1] and in assay [2] was more than 7.00 each time.

On to `CC(C)(C)CCN1CCC2(CC1)CCN(S(=O)(=O)c1ccc(N3CCC4(CC3)COC4)nc1)CC2` [Example 72, 7-(5-((9-(3,3-Dimethylbutyl)-3,9-diazaspiro[5.5]undecan-3-yl)sulfonyl)pyridin-2-yl)-2-oxa-7-azaspiro[3.5]nonane], for which the pKi in assay [1] is 6.00 to 6.30; in assay [2] it was more than 7.00.

Turning to `CC(C)CCN1CCC2(CC1)CCN(S(=O)(=O)c1ccc(N3CCC(F)(F)CC3)nc1)CC2` [Example 73, 3-((6-(4,4-Difluoropiperidin-1-yl)pyridin-3-yl)sulfonyl)-9-isopentyl-3,9-diazaspiro[5.5]undecane], the values for the pKi in assay [1] and in assay [2] were 6.30 to 7.00 and more than 7.00, respectively.

For the molecule `O=S(=O)(c1ccc(N2CCC(F)(F)CC2)nc1)N1CCC2(CCN(Cc3ccccc3)CC2)CC1` [Example 74, 3-Denzyl-9-((6-(4,4-difluoropiperidin-1-yl)pyridin-3-yl)sulfonyl)-3,9-diazaspiro[5.5]undecane], the figures for the pKi in assay [1] and in assay [2] were 6.30 to 7.00 and more than 7.00, respectively.

Turning to `CC(C)(C)CCN1CCCC2(CCN(S(=O)(=O)c3ccc(N4CCOCC4)nc3)CC2)C1` [Example 75, 4-(5-((2-(3,3-Dimethylbutyl)-2,9-diazaspiro[5.5]undecan-9-yl)sulfonyl)pyridin-2-yl)morpholine], the pKi in assay [1] and in assay [2] was more than 7.00 in each case.

Turning to `CC(C)(C)CCN1CCCC2(CCN(S(=O)(=O)c3ccc(N4CCC(F)(F)CC4)nc3)CC2)C1` [Example 76, 9-((6-(4,4-Difluoropiperidin-1-yl)pyridin-3-yl)sulfonyl)-2-(3,3-dimethylbutyl)-2,9-diazaspiro[5.5]undecane], the pKi in assay [1] and in assay [2] was more than 7.00 throughout.

With `CC(C)CCN1CCCC2(CCN(S(=O)(=O)c3ccc(N4CCC(F)(F)CC4)nc3)CC2)C1` [Example 77, 9-((6-(4,4-Difluoropiperidin-1-yl)pyridin-3-yl)sulfonyl)-2-isopentyl-2,9-diazaspiro[5.5]undecane], the pKi in assay [1] and in assay [2] was more than 7.00 in each case.

Consider `CC(C)(C)CCN1CCCC2(CCN(S(=O)(=O)c3ccc(N4CCC5(CCCO5)CC4)nc3)CC2)C1` [Example 78, 8-(5-((2-(3,3-Dimethylbutyl)-2,9-diazaspiro[5.5]undecan-9-yl)sulfonyl)pyridin-2-yl)-1-oxa-8-azaspiro[4.5]decane], for which the pKi in assay [1] and in assay [2] was more than 7.00 in each case.

With `CC(C)(C)CCN1CCC2(CC1)CCN(S(=O)(=O)c1ccc(N3CCOCC3)nc1)C2` [Example 79, 4-(5-((8-(3,3-Dimethylbutyl)-2,8-diazaspiro[4.5]decan-2-yl)sulfonyl)pyridin-2-yl)morpholine], the pKi in assay [1] was 6.30 to 7.00; in assay [2], more than 7.00.

As for `CC(C)(C)CCN1CCC2(CC1)CCN(S(=O)(=O)c1ccc(N3CCC(F)(F)CC3)nc1)C2` [Example 80, 2-((6-(4,4-Difluoropiperidin-1-yl)pyridin-3-yl)sulfonyl)-8-(3,3-dimethylbutyl)-2,8-diazaspiro[4.5]decane], the pKi in assay [1] and in assay [2] was more than 7.00 in each case.
